This note sets out measurements from EP4474386A1, “ANTHRACYCLINES” (priority 2023, dated 2024).

For series [1], the system named is γH2AX levels in K562 cells. As to the kind of experiment: Assay 3: Western blot of γH2AX levels (DNA damage). It is filed as cell-based, human. Conditions: 10 µM, 2 h, FIGS. 3A & 3B. As to the method:
Cells were seeded into 12-well format (e.g. 250.000 cells/well for K562, or Mjs), treated with indicated drugs at 10 µM for 2 hours. Subsequently, drugs were removed by extensive washing and cells were collected and processed immediately for the assays. Cells were lysed directly in SDS-sample buffer (2%SDS, 10% glycerol, 5% β-mercaptoethanol, 60mM Tris-HCl pH 6.8 and 0.01% bromophenol blue). Samples were separated by SDS-PAGE and transferred to a PVDF membrane (Immobilon-P, 0.45µm, Millipore). Blocking of the filters and antibody incubations were done in PBS supplemented with 0.1 (v/v)% Tween and 5% (w/v) milk powder (Skim milk powder, LP0031, Oxiod). Blots were imaged by the Odyssey Classic imager (Li-Cor). Intensity of bands was quantified using imaged or Image Studio software. For CFGE: DNA double strand breaks were quantified by constant-field gel electrophoresis as described in Wlodek D., Banáth J., & Olive P. L., International Journal of Radiation Biology, 1991, 60:5, 779-790. Images were quantified using imaged software.
Primary antibodies used for Western blotting: γH2AX (1:1000, 05-036, Millipore), β-actin (1:10000, A5441, Sigma). […]
Assay 3. […] This was determined by assessing γH2AX levels (see Kuo, L. J., Yang, L. X. In Vivo. April 2008, pp 305-310) using the assay for Western blot analysis described herein. […]

For series [2], the system named is DNA double-strand breaks in K562 cells. Description: Assay 2: Constant-field gel electrophoresis (CFGE), DNA double-strand breaks. The series is classed as cell-based, human. The note with it: 10 µM, 2 hours, FIGS. 3C & 3D. The protocol:
Cells were seeded into 12-well format (e.g. 250.000 cells/well for K562, or Mjs), treated with indicated drugs at 10 µM for 2 hours. Subsequently, drugs were removed by extensive washing and cells were collected and processed immediately for the assays. DNA double strand breaks were quantified by constant-field gel electrophoresis as described in Wlodek D., Banáth J., & Olive P. L., International Journal of Radiation Biology, 1991, 60:5, 779-790. Images were quantified using imaged software.
Assay 2. Because anthracycline drugs can also evict histones, including H2AX, the levels of phosphorylated H2AX might be affected. To determine DNA double-strand break induction by the compounds embodying the present invention at the DNA level, we assessed the DNA damage capacity of all the compounds by using constant field gel electrophoresis (CFGE), as described below, a more direct method to detect DNA breaks. The results are set out in FIGS. 3C & 3D.

In the next series the test system is MelJuSo-PAGFP-H2A cells. Description: Assay 4: Microscopy analysis, PAGFP-H2A photoactivation and time-lapse confocal imaging (histone eviction). It is filed as cell-based, human. The note with it: 10 µM, 1 hour time-lapse; FIG. 4A. As to the method: For PAGFP-H2A photoactivation and time-lapse confocal imaging, cells were seeded in a 35mm glass bottom petri dish (Poly-dlysine-Coated, MatTek Corporation), and imaged 16 hours later as described in Pang, B., Qiao, X., Janssen, L. et al. Nat Commun 4, 2013, 1908 for one hour following addition of 10µM of the indicated drugs. Time-lapse confocal imaging was performed on a Leica SP8 confocal microscope system 63x lens, equipped with a climate chamber. Movies were quantified using imaged software.
Assay 4. This assay visualised histone eviction and subsequently, the chromatin damage induced by the compounds embodying the present invention could be assessed. The method followed is described in the assay for microscopy analysis described herein.

Series [3] relates to human myelogenous leukemic cell line K562. As to the kind of experiment: Assay 1: Short-term growth inhibition viability assay (CellTiter-Blue). The series is classed as cell-based. The note with it: K562 cells. As to the method: Cells were seeded into 96-well format (e.g. 2000 cells/well for K562, Mjs, or U2O cells). 24 hours after seeding, cells were treated with indicated compounds for 2 hours at various concentrations. Subsequently, compounds were removed, and cells were left to grow for an additional 72 hours. Cell viability was measured using the CellTiter-Blue viability assay (Promega). Relative survival was normalized to the untreated control and corrected for background signal.
K562 cells (B. Pang, Leiden University Medical Center, the Netherlands) were maintained in RPMI-1640 medium supplemented with 8% FCS. MelJuSo cells were maintained in IMDM supplemented with 8% FCS. MelJuSo cells stably expressing PAGFP-H2A were maintained in IMDM supplemented with 8% FCS and G-418, as described in Pang, B., Qiao, X., Janssen, L. et al. Nat Commun 4, 1908 (2013). U2Os cells (ATCC® HTB-96) were maintained in DMEM medium supplemented with 8% FCS. Cell lines were maintained in a humidified atmosphere of 5% CO2 at 37°C, regularly tested for the absence of mycoplasma and the origin of cell lines was validated using STR analysis.
Assay 1. Anthracyclines are often used in the treatment of acute myeloid leukaemia and other haematological malignancies. Therefore, the compounds shown in FIG. 1 were assayed for their activity versus human myelogenous leukemic cell line K562 in order to determine their cytotoxicity in vitro, using the assay for short-term growth inhibition viability described herein. […] IC50 is expressed in µM and represents the concentration of compound required to inhibit cell proliferation by 50%.
(In general: Resazurin is reduced to fluorescent resorufin, in cell work by metabolically active cells.)

Structures are written as SMILES. “Also recorded” adds a separate entry of the source.

`CC(=O)[C@]1(O)Cc2c(O)c3c(c(O)c2[C@@H](O[C@H]2C[C@H](N(C)C)[C@H](O)[C@H](C)O2)C1)C(=O)c1ccccc1C3=O` [Compound 18, N,N-dimethylidarubicin]: in series [1], the “DNA damage (γH2AX levels)” value is “did not induce DNA damage”. Also, the “DNA double-strand break induction (CFGE)” value in series [2] is recorded as “do not induce DNA; also recorded: does not induce any DNA double-strand breaks”. Moreover, in the series with MelJuSo-PAGFP-H2A cells, the “chromatin damage / rate of histone eviction (in words)” value is “superior chromatin damage activity relative to doxorubicin (1); also recorded: improved or comparable toxicity and rate of histone eviction relative to doxorubicin (1) and idarubicin (17)”.

As for `CC(=O)[C@]1(O)Cc2c(O)c3c(c(O)c2[C@@H](O[C@H]2C[C@H](N(C)C)[C@H](O[C@H]4C[C@H](O)[C@H](O[C@H]5CCC(=O)[C@H](C)O5)[C@H](C)O4)[C@H](C)O2)C1)C(=O)c1ccccc1C3=O` [Compound 26, 7-[2,3-Dideoxy-4-ulo-α-L-fucopyranosyl-2-deoxy-α-L-fucopyranosyl-(1→4)- -2,3-dideoxy-3-dimethylamino-α-L-fucopyranoside]-idarubicinone], the “cytotoxicity (in words, compared with reference anthracyclines)” value in series [3] (FIG. 2A) is “considerably more cytotoxic than doxorubicin (1); also recorded: most effective compound tested; also recorded: more toxic than doxorubicin (1), aclarubicin (2) and idarubicin (17)”. Moreover, the IC50 in series [3] (2 hours treatment, then 72 hours growth) came out at 0.02 µM. Also, in series [3] (relative to doxorubicin (1)), the “times more cytotoxic than doxorubicin (1)” value is reported as 16 times. The “DNA damage (γH2AX levels)” value in series [1] is “did not induce DNA damage”. Besides, the “DNA double-strand break induction (CFGE)” value in series [2] is listed as “do not induce DNA; also recorded: not inducing any DNA double-strand breaks”. Further, in the series with MelJuSo-PAGFP-H2A cells, the “chromatin damage / rate of histone eviction (in words)” value is “superior chromatin damage activity relative to doxorubicin (1); also recorded: fastest histone eviction activity; also recorded: more efficient in terms of histone eviction”.

Broadly, the IC50 is the concentration that gives 50% inhibition. The low end stands for higher potency, the high end for lower potency.
